Entries after “also recorded” stand apart in the source; their conditions may differ.
How the values were obtained:
hTRPM5 = target: T1, hTRPM5 (Homo sapiens, UniProt Q9NZQ8); assay: hTRPM5 membrane potential dye FLIPR assay in HEK-293 cells (transient or stable clone); assay type: cell-based; conditions: for dependence of agonist-induced change in membrane potential on extracellular Na+: NaCl versus NMDG replacement; for change in membrane potential in hTRPM5-expressing HEK293 cells: agonist of an expressed receptor (endogenous muscarinic, transfected H1 or AT1) or Ca2+ ionophore, dye R-8034; for change in membrane potential in hTRPM5-expressing cells not transfected with the agonist's receptor: unrelated agonist control
T1 construct: expressed in transfected cells
T1 sequence (Q9NZQ8 1-1165): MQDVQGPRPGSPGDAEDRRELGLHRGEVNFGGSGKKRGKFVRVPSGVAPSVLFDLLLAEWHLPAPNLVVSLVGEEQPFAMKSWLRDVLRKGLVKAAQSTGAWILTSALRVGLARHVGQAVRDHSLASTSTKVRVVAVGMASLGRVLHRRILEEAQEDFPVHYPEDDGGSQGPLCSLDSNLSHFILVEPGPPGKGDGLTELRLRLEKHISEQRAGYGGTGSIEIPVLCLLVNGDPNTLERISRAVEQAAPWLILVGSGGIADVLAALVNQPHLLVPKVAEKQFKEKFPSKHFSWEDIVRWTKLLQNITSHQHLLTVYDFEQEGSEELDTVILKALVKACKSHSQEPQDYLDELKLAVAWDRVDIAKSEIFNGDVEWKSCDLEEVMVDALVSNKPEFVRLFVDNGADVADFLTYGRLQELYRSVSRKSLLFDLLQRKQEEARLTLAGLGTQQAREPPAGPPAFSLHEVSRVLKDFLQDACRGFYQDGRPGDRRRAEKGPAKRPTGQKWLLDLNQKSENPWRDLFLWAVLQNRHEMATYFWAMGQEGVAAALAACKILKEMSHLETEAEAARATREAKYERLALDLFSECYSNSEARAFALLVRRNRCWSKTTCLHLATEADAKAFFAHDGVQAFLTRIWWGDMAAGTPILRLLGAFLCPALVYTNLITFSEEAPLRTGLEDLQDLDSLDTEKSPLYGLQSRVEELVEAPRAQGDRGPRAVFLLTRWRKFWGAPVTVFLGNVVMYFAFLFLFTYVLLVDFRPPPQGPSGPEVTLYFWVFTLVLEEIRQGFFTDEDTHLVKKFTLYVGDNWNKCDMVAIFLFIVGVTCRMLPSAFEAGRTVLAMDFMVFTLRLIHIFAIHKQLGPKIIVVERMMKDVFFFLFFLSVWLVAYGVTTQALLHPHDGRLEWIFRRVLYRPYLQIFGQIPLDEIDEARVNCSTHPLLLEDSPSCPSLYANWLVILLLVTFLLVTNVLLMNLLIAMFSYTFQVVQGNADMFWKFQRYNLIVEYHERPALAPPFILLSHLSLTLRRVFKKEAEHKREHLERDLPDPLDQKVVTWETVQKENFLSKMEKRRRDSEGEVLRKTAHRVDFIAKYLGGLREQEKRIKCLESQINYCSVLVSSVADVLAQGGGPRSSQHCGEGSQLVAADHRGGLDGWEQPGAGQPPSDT
Description: (§1) HEK-293 cells (about 50-70% confluency) contained in 10 cm dishes are transfected with 5 μg of TRPM5 DNA and pcDNA3 and 2 μg of RFP plasmids using TransH293.
(§2) After 24 hours, the cells are split into 384-well plates at ˜50,000 cells/well.
(§3) At 48 hours post-transfection the cells are loaded with membrane potential dyes in HBSS for 60 minutes at room temperature.
Compounds plates are prepared in HBSS.
HEK-293 cells transfected with TRPM5 nucleic acid sequence containing plasmid that comprises neo marker and stable cell clones are selected using neomycin.
Screened clones are screened using membrane potential dyes and FLIPR, for a GPCR-induced change in membrane potential.
This experiment is contained in FIG. 10. In the experiment HEK293 cells were transfected with a plasmid encoding hTRPM5 in pcDNA3.Neo. 48 hours later cells were put in selection media (500 ug/ml neomycin) and stable clones were selected and expanded. Clone #51 was further characterized for carbachol-induced hTRPM5 activation. Cells were loaded with a membrane potential dye (R-8034; Molecular Devices Corporation). […]

[1] = system: HEK293 cells lacking hTRPM5; assay: Membrane potential dye assay in HEK293 cells lacking hTRPM5 (control plasmid pUC); assay type: cell-based, human; conditions: agonist stimulation
Description: (§4) As shown in the Left Panel: HEK293 cells were transfected with a plasmid encoding hTRPM5. 48 hours later cells were loaded with either a membrane potential dye (Molecular Devices Corporation; R-8034 or DisBAC) or a Ca^2+-sensitive dye (Fluo3). […] As shown in the Right Panel: HEK293 cells were transfected with a control plasmid (pUC) and treated as described above.
This experiment the results of which are shown in FIG. 5 evaluated TRPM5 induced changes in membrane potential. As shown in the left panel HEK293 cells were transfected with plasmids encoding the H1 histamine receptor with (red trace) or without (blue trace) a plasmid encoding hTRPM5. 48 hours later cells were loaded with a membrane potential dye (R-8034; Molecular Devices Corporation).
(§5) In this experiment the results of which are contained in FIG. 11 a library of ˜15,000 compounds (10 uM) was screened for hTRPM5 modulators using clone #51 (described in FIG. 10). In our initial screening conditions hTRPM5 was maximally stimulated with carbachol, using concentrations of 50 uM to 100 uM.

mouse TRPM5 = target: T2, mouse TRPM5 (Mus musculus, UniProt Q9JJH7); assay: Mouse TRPM5 membrane potential dye assay in transfected HEK293 cells; assay type: cell-based; conditions: for change in membrane potential in mouse TRPM5-expressing HEK293 cells: agonist of an expressed receptor or Ca2+ ionophore, dye R-8034; for change in membrane potential in mouse TRPM5 cells not transfected with the agonist's receptor: unrelated agonist control
T2 construct: expressed in transfected cells; host or cells: HEK293, in some experiments co-transfected with the AT1 or H1 receptor or stably expressing mT2R5 and Galpha15
T2 sequence (Q9JJH7 1-1158): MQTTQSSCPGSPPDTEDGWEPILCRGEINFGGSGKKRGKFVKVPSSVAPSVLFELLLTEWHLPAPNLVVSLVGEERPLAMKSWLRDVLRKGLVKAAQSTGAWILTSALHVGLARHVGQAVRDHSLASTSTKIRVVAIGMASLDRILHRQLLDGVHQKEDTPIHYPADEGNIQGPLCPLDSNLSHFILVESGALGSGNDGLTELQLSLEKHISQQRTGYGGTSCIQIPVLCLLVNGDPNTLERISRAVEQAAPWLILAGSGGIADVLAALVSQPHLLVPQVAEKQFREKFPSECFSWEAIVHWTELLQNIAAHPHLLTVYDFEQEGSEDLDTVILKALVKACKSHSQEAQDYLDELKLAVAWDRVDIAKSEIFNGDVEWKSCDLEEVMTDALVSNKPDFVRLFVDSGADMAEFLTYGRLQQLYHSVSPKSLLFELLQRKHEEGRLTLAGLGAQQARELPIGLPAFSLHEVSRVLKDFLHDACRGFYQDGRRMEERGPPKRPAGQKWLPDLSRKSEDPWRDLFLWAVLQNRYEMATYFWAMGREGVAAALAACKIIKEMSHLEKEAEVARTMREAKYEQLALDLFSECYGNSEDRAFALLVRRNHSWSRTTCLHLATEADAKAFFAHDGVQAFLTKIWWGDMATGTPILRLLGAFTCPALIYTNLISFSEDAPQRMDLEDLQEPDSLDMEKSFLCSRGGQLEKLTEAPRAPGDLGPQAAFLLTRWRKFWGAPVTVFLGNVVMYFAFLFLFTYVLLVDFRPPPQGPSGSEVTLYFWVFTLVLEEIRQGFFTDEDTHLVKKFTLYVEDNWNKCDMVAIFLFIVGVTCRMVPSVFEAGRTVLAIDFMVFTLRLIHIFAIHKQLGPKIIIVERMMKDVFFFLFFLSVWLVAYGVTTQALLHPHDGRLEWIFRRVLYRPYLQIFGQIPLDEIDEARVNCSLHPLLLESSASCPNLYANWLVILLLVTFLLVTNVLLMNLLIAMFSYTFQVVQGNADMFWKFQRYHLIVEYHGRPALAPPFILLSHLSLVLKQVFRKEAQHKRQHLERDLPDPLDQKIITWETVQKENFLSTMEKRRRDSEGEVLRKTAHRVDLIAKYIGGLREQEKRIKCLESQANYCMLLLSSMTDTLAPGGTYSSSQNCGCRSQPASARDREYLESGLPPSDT
Description: as §1, §2, §3
This experiment contained in FIG. 8 compares mTRPM5 responses to the calcium ionophore ionomycin and various GPCR agonists. As shown in the left top panel HEK293 cells were transfected with a plasmid encoding mouse TRPM5 (red trace) or a control plasmid (pUC; blue trace). 48 hours later cells were loaded with a membrane potential dye (R-8034; Molecular Devices Corporation).
This experiment contained in FIG. 9 compares hTRPM5 and mTRPM5 responses to GPCR agonist compounds. As shown in the left panel HEK293 cells stably expressing the cycloheximide bitter receptor mT2R5 and the promiscuous G protein G[…]15 were transfected with a plasmid encoding for mouse TRPM05 or a control plasmid (pUC). 48 hours later cells were loaded with a membrane potential dye (R-8034; Molecular Devices Corporation).

Ca^2+ mobilization = assay: Ca2+ mobilization with Ca2+-sensitive dye (Fluo3) in HEK293 cells; assay type: cell-based, human
Description: as §4
This experiment the results of which are contained in FIG. 7 compared TRPM5 responses to the Ca++ ionophore ionomycin. As shown in the left panel HEK293 cells were transfected with a plasmid encoding hTRPM5. 48 hours later cells were loaded with either a membrane potential dye (R-8034; Molecular Devices Corporation) or a Ca^2+-sensitive dye (Fluo3).
as §5

dependence of agonist-induced change in membrane potential on extracellular Na+ (hTRPM5) | hTRPM5 activity produced (hTRPM5; 2 um carbachol) | Compound | change in membrane potential in hTRPM5-expressing HEK293 cells (hTRPM5) | change in membrane potential in hTRPM5-expressing cells not transfected with the agonist's receptor (hTRPM5) | change in membrane potential in cells lacking hTRPM5 [1] | change in membrane potential in mouse TRPM5-expressing HEK293 cells (mouse TRPM5) | change in membrane potential in mouse TRPM5 cells not transfected with the agonist's receptor (mouse TRPM5) | change in membrane potential in mT2R05 / G15 stable HEK293 cells transfected with human TRPM5 (hTRPM5; versus pUC control) | change in membrane potential in mT2R5 / G15 stable HEK293 cells transfected with mouse TRPM5 (mouse TRPM5; versus pUC control) | Ca^2+ response in control plasmid (pUC) transfected HEK293 cells (Ca^2+ mobilization) | Ca^2+ response in hTRPM5-transfected HEK293 cells (Ca^2+ mobilization)
only observed in the presence of NaCl | – | NCCc1c[nH]cn1 [histamine] | dose-dependent increase in membrane potential | has no effect | no significant change in membrane potential | dose-dependent increase in membrane potential | did not have any effect | – | – | – | –
– | – | C[C@@H]1C[C@@H]([C@H](O)CC2CC(=O)NC(=O)C2)C(=O)[C@@H](C)C1 [cycloheximide] | – | – | – | – | – | dose-dependent increase in membrane potential that is much greater than what is seen in cells not expressing human TRPM5 | dose-dependent increase in membrane potential that was much greater than what is seen in cells not expressing mouse TRPM5 | – | –
only observed in the presence of NaCl | 10-25% | C[N+](C)(C)CCOC(N)=O [carbachol] | concomitant increase in membrane potential; also recorded: dose-dependent increase in membrane potential; also recorded: dose-dependent increase in membrane potential that is much greater than what is seen in cells not expressing hTRPM5 | – | no change in membrane potential is observed; also recorded: no significant change in membrane potential | dose-dependent increase in membrane potential | – | – | – | a significant increase in Ca^2+ is triggered | leads to Ca^2+ mobilization
– | – | C[C@H](CCC(=O)O)C[C@H](C)C[C@H](C)C(=O)/C=C(\O)[C@H](C)C[C@H](C)C/C=C/[C@@H](C)[C@@H](O)[C@@H](C)[C@@H](O)C[C@@H]1CC[C@@](C)([C@H]2CC[C@@](C)([C@@H](C)O)O2)O1 [ionomycin] | concomitant increase in membrane potential; also recorded: dose-dependent increase in membrane potential that is noticeably greater in hTRPM5-expressing cells; also recorded: TRPM5-dependent changes in membrane potential | – | – | dose-dependent increase in membrane potential that is significantly greater in mouse-TRPM5 transfected cells; also recorded: TRPM5-dependent changes in membrane potential | – | – | – | – | leads to Ca^2+ influx
– | – | CNc1ccc2oc(C[C@H]3O[C@@]4(CC[C@H]3C)O[C@H]([C@H](C)C(=O)c3ccc[nH]3)[C@H](C)C[C@H]4C)nc2c1C(=O)O [A-23187] | TRPM5-dependent changes in membrane potential | – | – | TRPM5-dependent changes in membrane potential | – | – | – | – | –

Compound | dependence of agonist-induced change in membrane potential on extracellular Na+ (hTRPM5) | hTRPM5 activity produced (hTRPM5; 2 um carbachol) | change in membrane potential in hTRPM5-expressing HEK293 cells (hTRPM5) | change in membrane potential in hTRPM5-expressing cells not transfected with the agonist's receptor (hTRPM5) | change in membrane potential in cells lacking hTRPM5 [1] | change in membrane potential in mouse TRPM5-expressing HEK293 cells (mouse TRPM5) | change in membrane potential in mouse TRPM5 cells not transfected with the agonist's receptor (mouse TRPM5) | change in membrane potential in mT2R05 / G15 stable HEK293 cells transfected with human TRPM5 (hTRPM5; versus pUC control) | change in membrane potential in mT2R5 / G15 stable HEK293 cells transfected with mouse TRPM5 (mouse TRPM5; versus pUC control) | Ca^2+ response in control plasmid (pUC) transfected HEK293 cells (Ca^2+ mobilization) | Ca^2+ response in hTRPM5-transfected HEK293 cells (Ca^2+ mobilization)
angiotensin II (DRVYIHPF) [AT1 angiotensin II receptor agonist] | only observed in the presence of NaCl | – | dose-dependent increase in membrane potential | did not have any effect | no significant change in membrane potential | dose-dependent increase in membrane potential | had no effect | – | – | – | –
